Results on 14 molecules are retold here after ChEMBL document CHEMBL5352391, “New structural classes of antimalarials” (Eur J Med Chem, 2022).

≈ marks a conversion by molar mass, not a printed value.

In data set [1] the test system is Plasmodium berghei. Briefly: Antimalarial activity against Plasmodium berghei ANKA infected in mouse assessed as reduction in parasitemia by measuring effective dose at administrated orally for 4 days by flow cytometry analysis. It counts as functional. The settings on record: 96 h, route po, time 4 day. On the technique in general: A flow cytometer gives signals particle by particle.

The test system of data set [2] is Plasmodium falciparum. Put plainly: Antiplasmodial activity against mixture of chloroquine resistant Plasmodium falciparum RKL 303-chloroquine sensitive Plasmodium falciparum 3D7 infected in human erythrocyte assessed as inhibition of parasite growth incubated for 48 hrs by Giemsa staining based microscopic analysis. Type of data set: functional, organism-based.

Data set [3] has as its system Plasmodium falciparum. Put plainly: Antiplasmodial activity against chloroquine resistant Plasmodium falciparum RKL9 infected in human erythrocyte assessed as inhibition of parasite growth incubated for 24 hrs by two fold serial dilution assay. Type of data set: functional, organism-based.
Data set [4] concerns Plasmodium berghei. Put plainly: Antimalarial activity against Plasmodium berghei ANKA infected in Swiss albino mouse assessed as reduction in parasitemia at 50 micromol/kg,po administrated for 4 days by Giemsa staining based microscopic analysis. Type of data set: functional. Further details: scale not given: the % may be the effect or the level left. The settings on record: dose 50 µmol/kg, time 4 day.

Data set [5] is described as follows: Selectivity index, ratio of CC50 for cytotoxicity against human HepG2 cells by MTT assay to IC50 for antiplasmodial activity against chloroquine resistant Plasmodium falciparum W2 by SYBR green I dye based fluorescence assay. It counts as toxicity, cell-based. The following applies: read-out: Ratio CC50/IC50. On the technique in general: Tetrazolium assays rely on reduction of a dye to a coloured formazan, in cell work by metabolically active cells.

Data set [6] concerns Plasmodium falciparum. Briefly: Antiplasmodial activity against chloroquine sensitive Plasmodium falciparum 3D7 assessed as inhibition of parasite growth incubated for 48 hrs by SYBR green I dye based fluorescence assay. The following applies: 3D7, 48 h. Type of data set: functional, organism-based.
Data set [7] deals with Plasmodium falciparum. Put plainly: Antiplasmodial activity against chloroquine resistant Plasmodium falciparum W2 assessed as inhibition of parasite growth incubated for 48 hrs by SYBR green I dye based fluorescence assay. Type of data set: functional, organism-based. The settings on record: W2, 48 h.
In data set [8] the test system is Plasmodium falciparum. Briefly: Antiplasmodial activity against Plasmodium falciparum 3D7 assessed as inhibition of parasite growth incubated for 72 hrs by LDH assay based spectrofluorometric analysis. It counts as functional, organism-based. The following applies: 3D7, 72 h.
Data set [9] concerns Plasmodium falciparum. Briefly: Antiplasmodial activity against chloroquine resistant Plasmodium falciparum Dd2 assessed as inhibition of parasite growth incubated for 72 hrs by LDH assay based spectrofluorometric analysis. It counts as functional, organism-based. The following applies: Dd2, 72 h.
Data set [10] deals with Plasmodium falciparum. Put plainly: Antiplasmodial activity against Plasmodium falciparum TM90-C2A assessed as inhibition of parasite growth incubated for 72 hrs by SYBR Green I dye based fluorescence assay. It counts as functional, organism-based.
The subject of data set [11] is Plasmodium falciparum. Briefly: Antiplasmodial activity against Plasmodium falciparum TM90-C2B assessed as inhibition of parasite growth incubated for 72 hrs by SYBR Green I dye based fluorescence assay. Type of data set: functional, organism-based.
Data set [12] has as its system Plasmodium falciparum. Put plainly: Antiplasmodial activity against Plasmodium falciparum W2 assessed as inhibition of parasite growth incubated for 72 hrs by SYBR Green I dye based fluorescence assay. It counts as functional, organism-based. The following applies: W2, 72 h.
Data set [13] has as its system Plasmodium falciparum. Put plainly: Antiplasmodial activity against Plasmodium falciparum TM91-C23 assessed as inhibition of parasite growth incubated for 72 hrs by SYBR Green I dye based fluorescence assay. The settings on record: TM91-C23, 72 h. It counts as functional, organism-based.
Data set [14] has as its system Plasmodium vinckei. Briefly: Antimalarial activity against Plasmodium vinckei infected in Swiss OF1 mouse assessed as reduction in parasite growth by measuring its effective dose administrated orally for four consecutive days and measured on day 5 by Giemsa staining based microscopic analysis. The settings on record: 120 h, route po, time 5 day. It counts as functional.

Data set [15] has as its system Plasmodium vinckei. Put plainly: Antimalarial activity against Plasmodium vinckei infected in Swiss OF1 mouse assessed as reduction of parasitaemia at 10 mg/kg,po administrated for four consecutive days and measured on day 5 by Giemsa staining based microscopic analysis. It counts as functional. The following applies: time 5 day. Also noted: scale not given: the % may be the effect or the level left.

The subject of data set [16] is Plasmodium falciparum. Put plainly: Antiplasmodial activity against chloroquine resistant Plasmodium falciparum K1 infected in human RBC assessed as inhibition of parasite growth incubated for 48 hrs by optical microscopy analysis. Type of data set: functional, organism-based. The following applies: K1, Erythrocyte.
Data set [17] is described as follows: Selectivity index, ratio of CC50 for cytotoxicity against human HepG2 cells by MTT assay to IC50 for antiplasmodial activity against chloroquine sensitive Plasmodium falciparum 3D7 by SYBR green I dye based fluorescence assay. The settings on record: read-out: Ratio CC50/IC50. Type of data set: toxicity, cell-based.
In data set [18] the test system is Plasmodium falciparum. Put plainly: Antimalarial activity against Plasmodium falciparum FCBR assessed as inhibition of parasite growth by SYTOX Green dye based high-throughput assay. Type of data set: functional, organism-based.
A further data set deals with T1, Falcipain 2 (Plasmodium falciparum, UniProt Q9N6S8).
T1 sequence (Q9N6S8 whole entry): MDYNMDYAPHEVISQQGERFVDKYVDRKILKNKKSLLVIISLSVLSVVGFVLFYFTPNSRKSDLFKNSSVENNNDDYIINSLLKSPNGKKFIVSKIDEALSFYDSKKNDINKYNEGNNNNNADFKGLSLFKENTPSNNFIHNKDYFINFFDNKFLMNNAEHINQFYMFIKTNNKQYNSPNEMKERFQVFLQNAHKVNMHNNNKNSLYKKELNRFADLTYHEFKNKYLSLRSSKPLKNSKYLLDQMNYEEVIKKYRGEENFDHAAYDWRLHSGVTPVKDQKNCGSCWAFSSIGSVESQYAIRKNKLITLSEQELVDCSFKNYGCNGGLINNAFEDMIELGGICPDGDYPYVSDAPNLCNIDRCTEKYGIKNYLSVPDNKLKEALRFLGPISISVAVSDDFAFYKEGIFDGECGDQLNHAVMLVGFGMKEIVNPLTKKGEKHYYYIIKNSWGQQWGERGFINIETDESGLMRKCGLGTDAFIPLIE
Put plainly: Inhibition of Plasmodium falciparum recombinant His-tagged falcipain-2 expressed in Escherichia coli assessed as inhibition constant using Cbz-Phe-Arg-AMC as substrate by fluorescence spectrophotometer assay.

A short description of data set [19]: Retention time of the compound by HPLC-MS analysis. It counts as physicochemical.
Data set [20] concerns Plasmodium falciparum. Briefly: Antiplasmodial activity against Plasmodium falciparum K1 infected in human erythrocyte assessed as inhibition of parasite growth incubated for 72 hrs by [3H]-hypoxanthine incorporation based liquid scintillation counting method. Type of data set: functional, organism-based.
Data set [21] relates to Plasmodium falciparum. Put plainly: Additive antiplasmodial activity against Plasmodium falciparum NF54 gametocytes infected in human erythrocyte assessed as inhibition of parasite growth by measuring minimum inhibitory concentration incubated for 48 hrs in presence of lumefantrine by SYBR Green dye based fluorescence assay. Type of data set: functional.
Data set [22] has as its system Plasmodium falciparum. Briefly: Additive antiplasmodial activity against Plasmodium falciparum NF54 gametocytes infected in human erythrocyte assessed as inhibition of parasite growth by measuring minimum inhibitory concentration incubated for 48 hrs in presence of chloroquine by SYBR Green dye based fluorescence assay. It counts as functional.
Data set [23] relates to Plasmodium falciparum. Briefly: Antiplasmodial activity against Plasmodium falciparum NF54 gametocytes infected in human erythrocyte assessed as inhibition of parasite growthVincubated for 48 hrs by SYBR Green dye based fluorescence assay. It counts as functional, organism-based.
The subject of data set [24] is Plasmodium falciparum. Briefly: Additive antiplasmodial activity against Plasmodium falciparum NF54 gametocytes infected in human erythrocyte assessed as inhibition of parasite growth by measuring minimum inhibitory concentration incubated for 48 hrs in presence of mefloquine by SYBR Green dye based fluorescence assay. Type of data set: functional.

The IC50 is the point on the concentration scale where inhibition reaches its midpoint. The term ED50 denotes the dose that gives a 50% effect, or the effect in half of the subjects. Usually Ki stands for the equilibrium dissociation constant of an inhibitor or competing ligand from its target. Broadly, the MIC50 is the lowest concentration that inhibits either 50% of growth or 50% of the strains tested, depending on the study.

As to `CC(=O)N1CCN(c2ccc(CN(C(=O)/C=C/c3ccc(C(F)(F)F)cc3)[C@@H](Cc3ccccc3)C(=O)N3CCN(Cc4ccc(N(C)CCO)cc4)CC3)cc2)CC1`, in the data set on Plasmodium berghei [1], the ED90 worked out at 54.4 mg/kg.
Turning to `COc1ccc(/C=C/C(=O)c2ccc(-n3cnc4ccccc43)cc2)c(OC)c1`, the IC50 in the data set with Plasmodium falciparum [2] was 1.1 µg/mL (≈ 2.86 µM).
For `O=C(O)c1cn(-c2ccc(Cl)cc2)nc1-c1ccccc1`, in the data set on Plasmodium falciparum [3], the IC50 turned out to be 33 nM. Besides, the Activity in the data set on Plasmodium berghei [4] was 97%.
Take `c1cc(CNCCCN2CCN(CCCNCc3cccc(-c4nc5ccccc5n5cccc45)c3)CC2)cc(-c2nc3ccccc3n3cccc23)c1`: the selectivity ratio in [5] is 40.6. Besides, the IC50 worked out at 370 nM with Plasmodium falciparum [6] and 50 nM in the data set on Plasmodium falciparum [7].
Turning to `C/C1=C\[C@H](C)[C@@H](O)C[C@@H](O)/C(C)=C/[C@H](C)C[C@@H](C)CC[C@@H]([C@@H](C)C(=O)O)OC(=O)[C@@H](C)C1`, the results for the IC50 in the data set on Plasmodium falciparum [8] and in the data set on Plasmodium falciparum [9] were 128 nM and 180 nM, respectively.
For the molecule `C/C1=C\C(=O)O[C@@H](C(C)(C)C)CCC[C@@H](O)CCC[C@H](O)CCC[C@H](O)CCC[C@@H](O)C[C@H](O)C[C@@H](O)CCC[C@H](O)CCC[C@H](O)C[C@@H](O)CCCCC1`, the IC50 came to 80 nM in the data set on Plasmodium falciparum [10], 90 nM in the data set on Plasmodium falciparum [11], 140 nM with Plasmodium falciparum [12] and 270 nM in the data set on Plasmodium falciparum [13].
For `CO/N=C(/N)c1ccc(-n2cc(-c3cccc(/C(N)=N\OC)c3)nn2)cc1`, the ED50 in the data set on Plasmodium vinckei [14] worked out at 5 mg/kg. Besides, the Activity with Plasmodium vinckei [15] was 100%.
With `c1ccc(CCC2(CCc3ccccc3)OOC(CCc3ccccc3)(CCc3ccccc3)OO2)cc1`, the IC50 with Plasmodium falciparum [16] amounted to 1600 nM.
As to `COc1ccc2c(c1)nc(-c1cccc(CNCCCN3CCN(CCCNCc4cccc(-c5nc6ccc(OC)cc6n6cccc56)c4)CC3)c1)c1cccn12`, the IC50 with Plasmodium falciparum [6] turned out to be 40 nM; in the data set on Plasmodium falciparum [7] it was 170 nM. Moreover, in data set [17], the selectivity ratio stood at 39.2.
`C/C1=C\[C@H](C)CC[C@@H](O)/C(C)=C/[C@H](C)C[C@@H](C)CC[C@@H]([C@@H](C)C(=O)O)OC(=O)[C@@H](C)C1`: the results for the IC50 in the data set on Plasmodium falciparum [8] and in the data set with Plasmodium falciparum [9] were 13 nM and 32 nM, respectively.
On to `N=C(NC(=O)OCc1ccccc1)NC(=O)c1ccc(C(=O)NCc2ccc(NC(=O)OCc3ccccc3)cc2)o1`, for which the IC50 with Plasmodium falciparum [18] amounted to 1060 nM. Moreover, the Ki at Falcipain 2 was 1080 nM.
Take `C[C@H](C[C@H](O)[C@@H](O)C(C)(C)O)C1=C2C[C@H](O)[C@H]3[C@@]4(C)CCC(=O)C(C)(C)[C@@H]4CC[C@]3(C)[C@@]2(C)CC1` [ALISOL A]: the Retention_time in [19] came to 23 min. Further, in the data set on Plasmodium falciparum [20], the IC50 is 13.8 µM.
With `C[n+]1c2ccccc2cc2[n-]c3ccccc3c21` [CRYPTOLEPINE], the MIC50 was 1.02 nM in the data set on Plasmodium falciparum [21], 1.46 nM in the data set on Plasmodium falciparum [22] and 4.18 nM in the data set on Plasmodium falciparum [24]. In addition, the 50% inhibitory concentration (IC50) with Plasmodium falciparum [23] amounted to 19.6 nM.
Regarding `C=CC(C)(C)c1cc(/C=C/C(=O)c2ccc(O)cc2)c(OC)cc1O` [LICOAGROCHACONE A], the IC50 in the data set on Plasmodium falciparum [2] turned out to be 1.43 µg/mL (≈ 4.23 µM).
